From US20230144211A1, “ANTIFOLATE LINKER-DRUGS AND ANTIBODY-DRUG CONJUGATES” (Byondis B.V., priority 2020, published 2023)

Experiments:
Test in all cases: In vitro cell viability assay (CellTiter-Glo, 6 days)
[1] = tested on: Jurkat NucLight Red cells; type: cell-based, human; conditions: free antifolate drugs
Description: (§1) FaDu, BxPC-3, HeLa, MV4-11, and RAJI cell lines were obtained from Deutsche Sammlung von Mikroorganismen und Zellkulturen (Leipzig, Germany). Jurkat NucLight Red cells were obtained from Essen BioScience Inc. (Ann Arbor, Mich., USA). SK-BR-3 and SK-OV-3 cells were cultured in McCoys 5A medium (Lonza; Walkersville, Md., USA) supplemented with 10% v/w Fetal Bovine Serum (FBS), Heat-inactivated (HI) (Gibco-Life Technologies; Carlsbad, Calif.) and 80 U/mL Pen/Strep (Gibco-Life Technologies), at 37° C. in a humidified incubator under 5% CO2 atmosphere. SW-620 cells were similarly maintained in RPMI 1640 medium (Lonza), containing 10% v/w FBS HI and 80 U/mL Pen/Strep. A-549 cells were similarly maintained in F-12K Nutrient Mixture (1×) (Gibco-Life Technologies) media supplemented with 80 U/mL Pen/Strep and 5% v/w FBS, which was Qualified (Q) (Gibco-Life Technologies). BT-474 and AU-565 cells were similarly maintained in RPMI 1640 medium (Lonza), containing 10% v/w FBS, which was Qualified (Q) (Gibco-Life Technologies), and 80 U/mL Pen/Strep. […] Jurkat NucLight Red cells were similarly maintained in RPMI 1640 medium (Lonza), containing 10% v/w FBS HI, 80 U/mL Pen/Strep and 0.5 μg/mL Puromycin (Gibco-Life Technologies). FaDu cells were cultured in EMEM medium (Lonza) supplemented with 10% v/w FBS HI (Gibco-Life Technologies), 1× GlutaMAX (Gibco-Life Technologies), and 80 U/mL Pen/Strep (Gibco-Life Technologies), at 37° C. in a humidified incubator under 5% CO2 atmosphere.
(§2) After an overnight incubation, 10 serial log 10 dilutions of the free drugs were made in DMSO (Sigma-Aldrich). These free drug dose-response curves were 10-times further diluted in complete growth medium. For the ADCs according to the invention 10 serial log 10 dilutions were made in complete growth medium. 10 μL of a composition comprising a free drug or an ADC according to the invention was added to the assay plate (final DMSO content for free drugs was 1%). […] Cell viability was assessed after 6 days using a luminescent assay kit (CellTiter-Glo™ (CTG), Promega Corporation) according to the manufacturer's instructions. Percentage cell survival was calculated by dividing the measured luminescence for each free drug or ADC according to the concentration with the average mean of untreated cells (1% or 0.1% DMSO control (for free drugs) or 100% complete growth medium (for ADCs)) multiplied by 100.
(§3) Curves were fitted by non-linear regression using the sigmoidal dose-response equation with variable slope (four parameters) using curve-fitting software (GraphPad Prism, version 9.4.0 for Windows, GraphPad, San Diego, Calif. or Electronic Laboratory Notebook (ELN) add-in BioAssay, version 19.1.0.0218, Perkin Elmer, Waltham, Mass.). Relative IC50 values were calculated as the concentration that gives a response halfway between bottom and top of the curve, when using a 4-parameter logistic fit. Data were reported as mean IC50 value of at least one experiment performed in duplicate.

SK-BR-3 cells = type: cell-based, human
Description: as §1
as §2, with “Cell viability was assessed after 6 days using a luminescent assay kit (CellTiter-Glo™ (CTG), Promega Corporation) according to the manufacturer's instructions.” left out
as §3

AU-565 cells = type: cell-based, human
Description: as §1
as §2, with “Cell viability was assessed after 6 days using a luminescent assay kit (CellTiter-Glo™ (CTG), Promega Corporation) according to the manufacturer's instructions.” left out
as §3

A-549 cells = type: cell-based; conditions: Homo sapiens, A549; free antifolate drugs, Table 1a; $ steep hillslope
Description: Human tumor cell lines SK-BR-3, SW-620, A-549, BT-474, Jurkat Clone E6-1, AU-565, and SK-OV-3 were obtained from American Type Culture Collection (Rockville, Md., USA). FaDu, BxPC-3, HeLa, MV4-11, and RAJI cell lines were obtained from Deutsche Sammlung von Mikroorganismen und Zellkulturen (Leipzig, Germany). Jurkat NucLight Red cells were obtained from Essen BioScience Inc. (Ann Arbor, Mich., USA). SK-BR-3 and SK-OV-3 cells were cultured in McCoys 5A medium (Lonza; Walkersville, Md., USA) supplemented with 10% v/w Fetal Bovine Serum (FBS), Heat-inactivated (HI) (Gibco-Life Technologies; Carlsbad, Calif.) and 80 U/mL Pen/Strep (Gibco-Life Technologies), at 37° C. in a humidified incubator under 5% CO2 atmosphere. SW-620 cells were similarly maintained in RPMI 1640 medium (Lonza), containing 10% v/w FBS HI and 80 U/mL Pen/Strep. A-549 cells were similarly maintained in F-12K Nutrient Mixture (1×) (Gibco-Life Technologies) media supplemented with 80 U/mL Pen/Strep and 5% v/w FBS, which was Qualified (Q) (Gibco-Life Technologies). BT-474 and AU-565 cells were similarly maintained in RPMI 1640 medium (Lonza), containing 10% v/w FBS, which was Qualified (Q) (Gibco-Life Technologies), and 80 U/mL Pen/Strep. Jurkat Clone E6-1, BxPC-3, HeLa, MV4-11, and RAJI cells were similarly maintained in RPMI 1640 medium (Lonza), containing 10% v/w FBS HI and 80 U/mL Pen/Strep. Jurkat NucLight Red cells were similarly maintained in RPMI 1640 medium (Lonza), containing 10% v/w FBS HI, 80 U/mL Pen/Strep and 0.5 μg/mL Puromycin (Gibco-Life Technologies). FaDu cells were cultured in EMEM medium (Lonza) supplemented with 10% v/w FBS HI (Gibco-Life Technologies), 1× GlutaMAX (Gibco-Life Technologies), and 80 U/mL Pen/Strep (Gibco-Life Technologies), at 37° C. in a humidified incubator under 5% CO2 atmosphere.
as §2, with “Cells in complete growth medium were plated in 96-well plates (90 μL/well) and incubated at 37° C., 5% CO2 at the following cell densities: 6500 SK-BR-3, 4000 SW-620, 2500 A-549, 10000 BT-474, 3000 Jurkat Clone E6-1, 5000 AU-565, 1250 FaDu, 1250 BxPC-3, 1000 HeLa, 7500 MV4-11, 1000 RAJI, 3000 Jurkat NucLight Red, and 4000 SK-OV-3 cells per well. After” for “After”
as §3

[2] = Homo sapiens, SK-BR-3, free antifolate drugs, Table 1b, # no full dose-response curve
[3] = Homo sapiens, AU565, free antifolate drugs, Table 1b
[4] = Homo sapiens, SK-BR-3, free antifolate drugs, Table 1c
[5] = Homo sapiens, AU565, free antifolate drugs, Table 1c
[6] = free antifolate drugs, Table 1c

Structure (SMILES): Nc1ccc(C(=O)NCCC[C@H](NC(=O)c2ccc(OCc3cnc4nc(N)nc(N)c4n3)cc2)C(=O)O)c(-c2nn[nH]n2)c1 [AFD-001]
- IC50 ([1]; Homo sapiens, Jurkat, Table 1b): 4.92 nM
- IC50 (SK-BR-3 cells; [2]): 25 nM
- IC50 (AU-565 cells; [3]): 9.18 nM

Structure (SMILES): Nc1ccc(C(=O)NCCC[C@H](NC(=O)c2ccc(NCc3cnc4nc(N)nc(N)c4n3)c(O)c2)C(=O)O)c(-c2nn[nH]n2)c1 [AFD-002]
- IC50 ([1]; Homo sapiens, Jurkat, Table 1b): 15 nM
- IC50 (SK-BR-3 cells; [2]): 20 nM
- IC50 (AU-565 cells; [3]): 14 nM

Structure (SMILES): C#CCN(Cc1cnc2nc(N)nc(N)c2n1)c1ccc(C(=O)N[C@@H](CCCNC(=O)c2ccc(N)cc2-c2nn[nH]n2)C(=O)O)cc1 [AFD-003]
- IC50 ([1]; Homo sapiens, Jurkat, Table 1b): 1.4 nM
- IC50 (SK-BR-3 cells; [2]): 2.09 nM
- IC50 (AU-565 cells; [3]): 0.98 nM

Structure (SMILES): Nc1ccc(C(=O)NCCC[C@H](NC(=O)c2ccc(NCc3cnc4nc(N)nc(N)c4n3)cc2O)C(=O)O)c(-c2nn[nH]n2)c1 [AFD-004]
- IC50 ([1]; Homo sapiens, Jurkat, Table 1c): 0.68 nM
- IC50 (SK-BR-3 cells; [4]): 0.67 nM
- IC50 (AU-565 cells; [5]): 0.37 nM

Structure (SMILES): Nc1ccc(C(=O)NCCC[C@H](NC(=O)c2ccc(SCc3cnc4nc(N)nc(N)c4n3)cc2)C(=O)O)c(-c2nn[nH]n2)c1 [AFD-005]
- IC50 ([1]; Homo sapiens, Jurkat, Table 1c): 5.6 nM
- IC50 (SK-BR-3 cells; [4]): ~22 nM
- IC50 (AU-565 cells; [5]): ~8 nM

Structure (SMILES): Nc1ccc(C(=O)NCCC[C@H](NC(=O)c2ccc(NCc3cnc4nc(N)nc(N)c4n3)c(N)c2)C(=O)O)c(-c2nn[nH]n2)c1 [AFD-006]
- IC50 ([1]; Homo sapiens, Jurkat, Table 1c): 5.98 nM
- IC50 (SK-BR-3 cells; [4]): 5.15 nM
- IC50 (AU-565 cells; [5]): 2.8 nM

Structure (SMILES): Nc1ccc(C(=O)NCCC[C@H](NC(=O)c2ccc3c(c2)CCCN3Cc2cnc3nc(N)nc(N)c3n2)C(=O)O)c(-c2nn[nH]n2)c1 [AFD-007]
- IC50 ([1]; Homo sapiens, Jurkat, Table 1c): 2.01 nM
- IC50 (SK-BR-3 cells; [4]): 1.06 nM
- IC50 (AU-565 cells; [5]): 0.68 nM

Structure (SMILES): Nc1ccc(C(=O)NCCC[C@H](NC(=O)c2ccc3c(c2)CCN3Cc2cnc3nc(N)nc(N)c3n2)C(=O)O)c(-c2nn[nH]n2)c1 [AFD-008]
- IC50 ([1]; Homo sapiens, Jurkat, Table 1c): 0.87 nM
- IC50 (SK-BR-3 cells; [4]): 1.5 nM
- IC50 (AU-565 cells; [5]): 0.76 nM

Structure (SMILES): Nc1ccc(C(=O)NCCC[C@H](NC(=O)c2ccc3c(ccn3Cc3cnc4nc(N)nc(N)c4n3)c2)C(=O)O)c(-c2nn[nH]n2)c1 [AFD-009]
- IC50 ([1]; Homo sapiens, Jurkat, Table 1c): 1.96 nM
- IC50 (SK-BR-3 cells; [4]): 2.82 nM
- IC50 (AU-565 cells; [5]): 1.15 nM

Structure (SMILES): Nc1ccc(C(=O)NCCC[C@H](NC(=O)c2ccc(NCc3cnc4nc(N)nc(N)c4n3)cc2N)C(=O)O)c(-c2nnn[nH]2)c1 [AFD-010]
- IC50 ([1]; Homo sapiens, Jurkat, Table 1c): 2.31 nM
- IC50 (SK-BR-3 cells; [4]): 2.4 nM
- IC50 (AU-565 cells; [5]): 1.17 nM

Structure (SMILES): CN(Cc1cnc2nc(N)nc(N)c2n1)c1ccc(C(=O)N[C@@H](CCCNC(=O)c2ccc(N)cc2-c2nn[nH]n2)C(=O)O)s1 [XC5, (S)-5-(4-amino-2-(2H-tetrazol-5-yl)benzamido)-2-(5-(((2,4-diaminopteridin-6-yl)methyl)(methyl)amino)thiophene-2-carboxamido)pentanoic acid]
- IC50 ([1]; Table 1c): ~30 nM
- IC50 (SK-BR-3 cells; [6]): ~100 nM
- IC50 (AU-565 cells; [6]): ~28 nM

Structure (SMILES): CN(Cc1cnc2nc(N)nc(N)c2n1)c1ccc(C(=O)N[C@@H](CCCNC(=O)c2ccc(N)cc2-c2nn[nH]n2)C(=O)O)s1 [XC9, (S)-5-(4-Amino-2-(2H-tetrazol-5-yl)benzamido)-2-(5-(((2,4-diaminopteridin-6-yl)methyl)(methyl)amino)thiophene-2-carboxamido)pentanoic acid]
- IC50 ([1]; Table 1c): 2.41 nM
- IC50 (SK-BR-3 cells; [6]): 3.77 nM
- IC50 (AU-565 cells; [6]): 1.95 nM

Structure (SMILES): Nc1ccc(-c2cn(CCC[C@H](NC(=O)c3ccc(NCc4cnc5nc(N)nc(N)c5n4)cc3)C(=O)O)nn2)c(C(=O)O)c1 [XR22, (S)-5-Amino-2-(1-(4-carboxy-4-(4-(((2,4-diaminopteridin-6-yl)methyl)amino)benzamido)butyl)-1H-1,2,3-triazol-4-yl)benzoic acid]
- IC50 (A-549 cells): ~2.5 nM
- IC50 (SK-BR-3 cells; Homo sapiens, SK-BR-3, free antifolate drugs, Table 1a): 2.2 nM
- IC50 (AU-565 cells; Homo sapiens, AU565, free antifolate drugs, Table 1a): 0.9 nM

Structure (SMILES): Nc1ccc(C(=O)NCCC[C@H](NC(=O)c2ccc(NCc3ccc4nc(N)nc(N)c4c3Cl)s2)C(=O)O)c(-c2nnn[nH]2)c1 [XT126, (S)-5-(4-Amino-2-(1H-tetrazol-5-yl)benzamido)-2-(5-(((2,4-diamino-5-chloroquinazolin-6-yl)methyl)amino)thiophene-2-carboxamido)pentanoic acid]
- IC50 ([1]; Homo sapiens, Jurkat, Table 1b): 5.01 nM
- IC50 (SK-BR-3 cells; [2]): 2.91 nM
- IC50 (AU-565 cells; [3]): 2.37 nM

Structure (SMILES): Nc1ccc(C(=O)NCCC[C@H](NC(=O)c2ccc(CCc3cnc4nc(N)nc(N)c4n3)cc2)C(=O)O)c(-c2nnn[nH]2)c1 [XT128, (S)-5-(4-Amino-2-(1H-tetrazol-5-yl)benzamido)-2-(4-(2-(2,4-diaminopteridin-6-yl)ethyl)benzamido)pentanoic acid]
- IC50 ([1]; Homo sapiens, Jurkat, Table 1b): 0.61 nM
- IC50 ([1]; Homo sapiens, Jurkat, Table 1c): 0.71 nM
- IC50 (SK-BR-3 cells; [2]): 0.57 nM
- IC50 (SK-BR-3 cells; [4]): 0.78 nM
- IC50 (AU-565 cells; [3]): 0.34 nM
- IC50 (AU-565 cells; [5]): 0.36 nM

Structure (SMILES): COc1cc(C(=O)N[C@@H](CCCNC(=O)c2ccc(N)cc2-c2nnn[nH]2)C(=O)O)ccc1NCc1cnc2nc(N)nc(N)c2n1 [XT132, (S)-5-(4-Amino-2-(1H-tetrazol-5-yl)benzamido)-2-(4-(((2,4-diaminopteridin-6-yl)methyl)amino)-3-methoxybenzamido)pentanoic acid]
- IC50 ([1]; Homo sapiens, Jurkat, Table 1b): 1.19 nM
- IC50 (SK-BR-3 cells; [2]): 2.15 nM
- IC50 (AU-565 cells; [3]): 0.97 nM
